The target of assay [1] is T1, Lysine-specific demethylase 2A (Homo sapiens, UniProt Q9Y2K7).
T1 sequence (Q9Y2K7 whole entry): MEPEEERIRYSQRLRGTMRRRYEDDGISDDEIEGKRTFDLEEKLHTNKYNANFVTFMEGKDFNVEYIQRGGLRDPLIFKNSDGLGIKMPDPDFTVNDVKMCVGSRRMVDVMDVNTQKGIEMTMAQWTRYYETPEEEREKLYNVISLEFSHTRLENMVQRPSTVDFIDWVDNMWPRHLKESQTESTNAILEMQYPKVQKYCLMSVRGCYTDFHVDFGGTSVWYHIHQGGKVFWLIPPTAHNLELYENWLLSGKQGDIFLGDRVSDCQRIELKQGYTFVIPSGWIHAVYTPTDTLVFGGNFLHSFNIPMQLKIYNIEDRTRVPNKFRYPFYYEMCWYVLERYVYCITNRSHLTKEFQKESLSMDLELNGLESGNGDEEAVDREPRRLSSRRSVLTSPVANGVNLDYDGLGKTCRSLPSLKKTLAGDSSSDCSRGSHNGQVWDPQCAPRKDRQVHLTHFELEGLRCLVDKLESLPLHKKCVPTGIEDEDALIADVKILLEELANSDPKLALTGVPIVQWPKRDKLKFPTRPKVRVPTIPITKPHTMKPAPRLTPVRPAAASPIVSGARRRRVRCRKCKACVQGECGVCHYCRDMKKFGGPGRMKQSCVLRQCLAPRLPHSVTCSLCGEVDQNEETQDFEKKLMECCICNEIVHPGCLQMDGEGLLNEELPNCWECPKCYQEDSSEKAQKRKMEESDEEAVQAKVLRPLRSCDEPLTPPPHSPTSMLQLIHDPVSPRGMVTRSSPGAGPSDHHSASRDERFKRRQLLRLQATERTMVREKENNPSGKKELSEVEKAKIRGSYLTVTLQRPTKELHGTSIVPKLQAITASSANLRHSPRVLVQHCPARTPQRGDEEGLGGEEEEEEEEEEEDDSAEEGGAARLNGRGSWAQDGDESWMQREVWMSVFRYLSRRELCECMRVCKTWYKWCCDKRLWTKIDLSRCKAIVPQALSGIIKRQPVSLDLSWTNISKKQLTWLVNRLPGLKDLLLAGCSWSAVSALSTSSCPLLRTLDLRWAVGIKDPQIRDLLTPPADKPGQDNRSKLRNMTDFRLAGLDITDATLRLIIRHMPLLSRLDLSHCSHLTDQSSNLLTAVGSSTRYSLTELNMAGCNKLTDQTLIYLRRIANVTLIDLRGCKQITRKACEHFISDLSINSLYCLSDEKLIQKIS
The assay is described as follows: Inhibition of KDM2A in human MIAPaCa2 cells assessed as increase in H3K36me2 level after 48 hrs by Hoechst 33258 staining based immunofluorescence assay. It counts as cell-based, MIA PaCa-2.

Assay [2] deals with T2, Lysine-specific demethylase 4A (Homo sapiens, UniProt O75164).
T2 sequence (O75164 whole entry): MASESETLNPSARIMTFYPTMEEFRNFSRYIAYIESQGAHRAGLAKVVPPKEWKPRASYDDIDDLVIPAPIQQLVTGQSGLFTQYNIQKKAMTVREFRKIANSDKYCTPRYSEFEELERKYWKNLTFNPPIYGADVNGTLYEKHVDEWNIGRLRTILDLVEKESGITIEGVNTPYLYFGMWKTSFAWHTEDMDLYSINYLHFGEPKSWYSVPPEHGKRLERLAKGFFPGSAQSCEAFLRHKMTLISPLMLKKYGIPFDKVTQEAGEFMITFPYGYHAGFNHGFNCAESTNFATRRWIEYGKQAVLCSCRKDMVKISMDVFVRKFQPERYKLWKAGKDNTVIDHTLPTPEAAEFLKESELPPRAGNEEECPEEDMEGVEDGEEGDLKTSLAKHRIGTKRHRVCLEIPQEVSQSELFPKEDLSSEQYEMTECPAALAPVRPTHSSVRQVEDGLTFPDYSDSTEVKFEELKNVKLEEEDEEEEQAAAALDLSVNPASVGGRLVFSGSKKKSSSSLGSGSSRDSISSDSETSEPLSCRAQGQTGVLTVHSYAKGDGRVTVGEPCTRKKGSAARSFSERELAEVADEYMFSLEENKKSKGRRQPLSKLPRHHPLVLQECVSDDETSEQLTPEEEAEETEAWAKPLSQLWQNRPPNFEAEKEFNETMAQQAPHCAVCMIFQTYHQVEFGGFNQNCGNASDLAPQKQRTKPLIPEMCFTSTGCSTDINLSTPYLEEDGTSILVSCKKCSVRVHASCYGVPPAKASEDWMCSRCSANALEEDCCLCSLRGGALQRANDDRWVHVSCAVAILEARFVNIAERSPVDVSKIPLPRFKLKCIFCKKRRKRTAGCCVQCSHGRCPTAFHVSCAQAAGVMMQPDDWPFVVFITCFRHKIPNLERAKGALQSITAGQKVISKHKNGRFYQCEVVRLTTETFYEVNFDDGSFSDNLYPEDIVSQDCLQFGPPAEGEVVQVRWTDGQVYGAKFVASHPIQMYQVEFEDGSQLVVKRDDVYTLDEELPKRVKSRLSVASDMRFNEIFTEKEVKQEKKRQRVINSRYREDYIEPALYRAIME
The assay can be described thus: biochemical.

The nature of assay [3]: Growth inhibition of human MIAPaCa2 cells after 48 hrs by CellTiter-Glo assay. It counts as functional. Particulars: MIA PaCa-2, 48 h. Background: In ATP-based viability assays light output follows the ATP content of the culture.
Assay [4] deals with T1, Lysine-specific demethylase 2A. The assay is described as follows: Competitive inhibition of recombinant His6-tagged KDM2A (1 to 517 residues) (unknown origin) expressed in Escherichia coli BL21 cells using methylstat as substrate preincubated for 30 mins followed by substrate addition measured after 4 hrs by fluorescence polarization assay.
Assay [5] deals with Lysine-specific demethylase 5A (Homo sapiens, UniProt P29375).

Usually pEC50 stands for the negative decadic logarithm of the EC50, by convention in mol/L. In general, pKi refers to −log10 of the Ki, conventionally taken in molar units. Usually GI50 stands for the concentration that inhibits growth by half. A low value points to more potent growth inhibition. By pIC50 is commonly meant the negative decadic logarithm of the IC50, by convention in mol/L.

pEC50, pIC50, pKi: −log10 of the molar value.

Sequence of Lysine-specific demethylase 5A (P29375 whole entry): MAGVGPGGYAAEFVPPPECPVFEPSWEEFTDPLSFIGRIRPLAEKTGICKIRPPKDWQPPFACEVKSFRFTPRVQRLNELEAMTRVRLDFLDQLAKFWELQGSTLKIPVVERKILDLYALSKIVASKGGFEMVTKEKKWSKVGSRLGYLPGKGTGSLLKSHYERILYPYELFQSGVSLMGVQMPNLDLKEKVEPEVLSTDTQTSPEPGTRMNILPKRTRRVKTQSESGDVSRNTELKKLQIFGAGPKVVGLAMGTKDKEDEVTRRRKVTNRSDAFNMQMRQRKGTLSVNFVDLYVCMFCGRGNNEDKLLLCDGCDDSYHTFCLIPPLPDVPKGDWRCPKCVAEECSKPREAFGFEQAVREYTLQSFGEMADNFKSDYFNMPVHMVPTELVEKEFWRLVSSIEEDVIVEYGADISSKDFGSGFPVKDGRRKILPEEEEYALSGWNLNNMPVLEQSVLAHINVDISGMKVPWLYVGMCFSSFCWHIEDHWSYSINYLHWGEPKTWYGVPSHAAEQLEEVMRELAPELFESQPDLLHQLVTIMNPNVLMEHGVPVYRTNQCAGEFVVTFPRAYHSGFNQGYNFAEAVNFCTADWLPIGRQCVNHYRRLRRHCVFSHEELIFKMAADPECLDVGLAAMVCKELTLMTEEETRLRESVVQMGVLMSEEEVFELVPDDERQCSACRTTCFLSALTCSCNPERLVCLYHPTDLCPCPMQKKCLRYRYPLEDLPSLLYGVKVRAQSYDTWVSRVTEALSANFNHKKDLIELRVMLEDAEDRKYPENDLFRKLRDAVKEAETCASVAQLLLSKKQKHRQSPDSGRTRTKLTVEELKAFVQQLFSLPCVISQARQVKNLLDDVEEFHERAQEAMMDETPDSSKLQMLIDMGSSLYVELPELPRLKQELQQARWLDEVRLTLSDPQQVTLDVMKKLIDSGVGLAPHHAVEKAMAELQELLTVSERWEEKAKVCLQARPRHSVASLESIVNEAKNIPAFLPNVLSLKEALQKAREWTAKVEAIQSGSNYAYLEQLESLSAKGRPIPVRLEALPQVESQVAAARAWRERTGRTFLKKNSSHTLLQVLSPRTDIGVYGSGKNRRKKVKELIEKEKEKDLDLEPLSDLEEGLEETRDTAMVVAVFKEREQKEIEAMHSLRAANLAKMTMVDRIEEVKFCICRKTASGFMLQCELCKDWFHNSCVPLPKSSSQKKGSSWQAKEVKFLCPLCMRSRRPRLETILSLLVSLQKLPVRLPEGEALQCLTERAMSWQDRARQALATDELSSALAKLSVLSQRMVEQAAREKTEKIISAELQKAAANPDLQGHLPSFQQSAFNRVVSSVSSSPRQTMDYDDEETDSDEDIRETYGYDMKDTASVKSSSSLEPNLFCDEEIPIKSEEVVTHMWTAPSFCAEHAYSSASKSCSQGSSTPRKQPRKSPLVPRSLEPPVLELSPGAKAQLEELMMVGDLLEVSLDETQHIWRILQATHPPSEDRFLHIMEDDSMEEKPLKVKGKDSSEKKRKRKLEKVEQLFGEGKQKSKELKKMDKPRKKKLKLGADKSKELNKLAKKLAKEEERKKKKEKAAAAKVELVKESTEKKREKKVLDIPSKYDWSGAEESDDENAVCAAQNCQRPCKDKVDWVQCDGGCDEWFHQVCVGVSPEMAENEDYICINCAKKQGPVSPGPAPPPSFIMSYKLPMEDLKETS

As for `CCCCCC[n+]1ccc(/C=C/c2ccc(N(C)C)cc2)cc1`, the pEC50 in assay [1] was 6.55. The pKi in assay [2] is 6.38; in assay [4], 6.55. For the same molecule, in assay [3], growth was halved (GI50) at 71 nM.
The molecule `CCCCc1oc2ccccc2c1C(=O)c1cc(I)c(OCCCC[N+](C)(C)C)c(I)c1` showed a pIC50 in assay [5] of 4.39.

Values taken from ChEMBL document CHEMBL3784917, “Recent Progress in Histone Demethylase Inhibitors” (J Med Chem, 2016).
